# Assay results published in patent US9695154B2, “Heteroaryl inhibitors of sumo activating enzyme” (MILLENNIUM PHARMACEUTICALS, INC., priority 2013, dated 2017).
# pIC50: −log10 of the molar value. Structures can show the parent of a compound that is named as a salt.
# Target: T1, recombinant human SAE enzyme (Homo sapiens, UniProt Q9UBT2)
# T1 sequence (Q9UBT2 1-640): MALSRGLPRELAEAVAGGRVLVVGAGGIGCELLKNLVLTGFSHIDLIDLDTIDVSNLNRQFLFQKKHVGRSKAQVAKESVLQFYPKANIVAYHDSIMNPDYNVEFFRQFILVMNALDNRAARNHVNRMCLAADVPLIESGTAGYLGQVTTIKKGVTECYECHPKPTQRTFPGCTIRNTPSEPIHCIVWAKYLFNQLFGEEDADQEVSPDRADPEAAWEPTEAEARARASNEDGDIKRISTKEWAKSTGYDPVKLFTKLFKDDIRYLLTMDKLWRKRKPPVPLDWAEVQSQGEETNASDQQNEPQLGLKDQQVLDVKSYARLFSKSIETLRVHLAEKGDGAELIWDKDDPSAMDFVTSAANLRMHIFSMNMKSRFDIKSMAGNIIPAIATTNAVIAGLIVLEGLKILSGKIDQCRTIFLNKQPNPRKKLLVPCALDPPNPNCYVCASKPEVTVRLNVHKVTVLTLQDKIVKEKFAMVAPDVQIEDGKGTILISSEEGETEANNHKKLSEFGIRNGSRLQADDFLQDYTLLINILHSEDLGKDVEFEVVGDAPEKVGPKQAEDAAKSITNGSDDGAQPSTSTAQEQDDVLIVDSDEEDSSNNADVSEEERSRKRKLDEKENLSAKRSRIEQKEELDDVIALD
# T1 sequence (Q9UBE0 1-346 partner): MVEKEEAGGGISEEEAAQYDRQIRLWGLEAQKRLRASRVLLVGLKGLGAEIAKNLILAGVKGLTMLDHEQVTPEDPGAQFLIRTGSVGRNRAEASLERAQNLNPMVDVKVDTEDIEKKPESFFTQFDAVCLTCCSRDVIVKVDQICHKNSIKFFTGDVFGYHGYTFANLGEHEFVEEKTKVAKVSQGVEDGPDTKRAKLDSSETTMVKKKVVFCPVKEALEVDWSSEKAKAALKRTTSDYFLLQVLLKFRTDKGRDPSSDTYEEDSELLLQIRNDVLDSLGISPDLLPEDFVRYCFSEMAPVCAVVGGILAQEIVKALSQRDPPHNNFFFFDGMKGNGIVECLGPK
# Assay: SAE HTRF Enzyme Assay
# Format: biochemical
# Details: for pIC50: class symbols A-C; for inhibition at 0.111 µM: compound concentration 0.111 μM, read-out: Percent Inhibition
# How it was run: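 SAE 0.11 nM; ATP 0.5 μM; Sumo-Flag 0.125 μM; Ubc9-GST 0.01 μM; 250 μM GSH, 5 mM MgCl2, pH 7.5. 105 min, 24° C. EDTA/KF stop plus Eu/APC antibodies, 2 h, TR-FRET. % inhibition or IC50.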
SMILES,pIC50,inhibition at 0.111 µM [%]
"NS(=O)(=O)OC[C@H]1C[C@@H](Nc2ncncc2C(=O)c2ccn(Cc3cccc(Br)c3)c2)C[C@@H]1O [Compound I-333, {(1R,2S,4R)-4-[(5-{[1-(3-bromobenzyl)-1H-pyrrol-3-yl]carbonyl}pyrimidin-4-yl)amino]-2-hydroxycyclopentyl}methyl sulfamate]",> 8.00,99
"NS(=O)(=O)OC[C@H]1C[C@@H](Nc2ncncc2C(=O)c2ccn(Cc3cc(F)cc(Cl)c3)n2)[C@H](O)[C@@H]1O [Compound I-334, {(1R,2R,3S,4R)-4-[(5-{[1-(3-chloro-5-fluorobenzyl)-1H-pyrazol-3-yl]carbonyl}pyrimidin-4-yl)amino]-2,3-dihydroxycyclopentyl}methyl sulfamate]",> 8.00,98
"NS(=O)(=O)OC[C@H]1C[C@@H](Nc2ncncc2C(=O)c2cc(CO)n(Cc3ccccc3)n2)C[C@@H]1O [Compound I-335, {(1R,2S,4R)-4-[(5-{[1-Benzyl-5-(hydroxymethyl)-1H-pyrazol-3-yl]carbonyl}pyrimidin-4-yl)amino]-2-hydroxycyclopentyl}methyl sulfamate]",> 8.00,97
"NS(=O)(=O)OC[C@H]1C[C@@H](Nc2ncncc2C(=O)c2ccn(Cc3ccc(F)cc3F)n2)[C@H](O)[C@@H]1O [Compound I-336, {(1R,2R,3S,4R)-4-[(5-{[1-(2,4-difluorobenzyl)-1H-pyrazol-3-yl]carbonyl}pyrimidin-4-yl)amino]-2,3-dihydroxycyclopentyl}methyl sulfamate]",> 8.00,97
"NS(=O)(=O)OC[C@H]1C[C@@H](Nc2ncncc2C(=O)c2ccn(Cc3ccc(Cl)c(Br)c3)c2)[C@@H](F)[C@@H]1O [Compound I-337, {(1R,2R,3R,4R)-4-[(5-{[1-(3-bromo-4-chlorobenzyl)-1H-pyrrol-3-yl]carbonyl}pyrimidin-4-yl)amino]-3-fluoro-2-hydroxycyclopentyl}methyl sulfamate]",> 8.00,98
"NS(=O)(=O)OC[C@H]1C[C@@H](Nc2ncncc2C(=O)c2ccn(Cc3ccccc3F)n2)[C@H](O)[C@@H]1O [Compound I-338, {(1R,2R,3S,4R)-4-[(5-{[1-(2-fluorobenzyl)-1H-pyrazol-3-yl]carbonyl}pyrimidin-4-yl)amino]-2,3-dihydroxycyclopentyl}methyl sulfamate]",> 8.00,99
"CC#CCn1ccc(C(=O)c2cncnc2N[C@@H]2C[C@H](COS(N)(=O)=O)[C@@H](O)C2)c1 [Compound I-340, {(1R,2S,4R)-4-[(5-{[1-(but-2-yn-1-yl)-1H-pyrrol-3-yl]carbonyl}pyrimidin-4-yl)amino]-2-hydroxycyclopentyl}methyl sulfamate]",> 8.00,94
"NS(=O)(=O)OC[C@H]1C[C@@H](Nc2ncncc2C(=O)c2ccn(Cc3csc4ccc(Cl)cc34)c2)C[C@@H]1O [Compound I-341, [(1R,2S,4R)-4-{[5-({1-[(5-chloro-1-benzothiophen-3-yl)methyl]-1H-pyrrol-3-yl}carbonyl)pyrimidin-4-yl]amino}-2-hydroxycyclopentyl]methyl sulfamate]",> 8.00,98
"NS(=O)(=O)OC[C@@H]1C[C@@H](Nc2ncncc2C(=O)c2ccn(Cc3ccccc3)n2)C[C@@H]1O [Compound I-342, [(1S,2S,4R)-4-({5-[(1-benzyl-1H-pyrazol-3-yl)carbonyl]pyrimidin-4-yl}amino)-2-hydroxycyclopentyl]methyl sulfamate]",7.00 to 8.00,79
"NS(=O)(=O)OC[C@H]1C[C@@H](Nc2ncncc2C(=O)c2ccn(Cc3ccc(F)c(C(F)(F)F)c3)n2)[C@H](O)[C@@H]1O [Compound I-343, [(1R,2R,3S,4R)-4-{[5-({1-[4-fluoro-3-(trifluoromethyl)benzyl]-1H-pyrazol-3-yl}carbonyl)pyrimidin-4-yl]amino}-2,3-dihydroxycyclopentyl]methyl sulfamate]",> 8.00,97
"CC(C)=C(C)n1ccc(C(=O)c2cncnc2N[C@@H]2C[C@H](COS(N)(=O)=O)[C@@H](O)C2)n1 [Compound I-344, {(1R,2S,4R)-2-hydroxy-4-[(5-{[1-(3-methylbut-2-en-2-yl)-1H-pyrazol-3-yl]carbonyl}pyrimidin-4-yl)amino]cyclopentyl}methyl sulfamate]",7.00 to 8.00,77
"Cn1ccc(C(=O)c2cncnc2N[C@@H]2C[C@H](COS(N)(=O)=O)[C@@H](O)[C@H]2O)n1 [Compound I-345, [(1R,2R,3S,4R)-2,3-dihydroxy-4-({5-[(1-methyl-1H-pyrazol-3-yl)carbonyl]pyrimidin-4-yl}amino)cyclopentyl]methyl sulfamate]",6.00 to 7.00,54
"NS(=O)(=O)OC[C@H]1C[C@@H](Nc2ncncc2C(=O)c2ccn(Cc3cc(Br)ccc3F)n2)C[C@@H]1O [Compound I-346, {(1R,2S,4R)-4-[(5-{[1-(5-bromo-2-fluorobenzyl)-1H-pyrazol-3-yl]carbonyl}pyrimidin-4-yl)amino]-2-hydroxycyclopentyl}methyl sulfamate]",> 8.00,100
"Cc1cc(C(=O)c2cncnc2N[C@@H]2C[C@H](COS(N)(=O)=O)[C@@H](O)C2)nn1Cc1cccc(I)c1 [Compound I-347, {(1R,2S,4R)-2-hydroxy-4-[(5-{[1-(3-iodobenzyl)-5-methyl-1H-pyrazol-3-yl]carbonyl}pyrimidin-4-yl)amino]cyclopentyl}methyl sulfamate]",> 8.00,> 99
"Cc1cc(Cn2ccc(C(=O)c3cncnc3N[C@@H]3C[C@H](COS(N)(=O)=O)[C@@H](O)C3)n2)no1 [Compound I-348, [(1R,2S,4R)-2-hydroxy-4-{[5-({1-[(5-methylisoxazol-3-yl)methyl]-1H-pyrazol-3-yl}carbonyl)pyrimidin-4-yl]amino}cyclopentyl]methyl sulfamate]",> 8.00,94
"NS(=O)(=O)OC[C@H]1C[C@@H](Nc2ncncc2C(=O)c2ccn(Cc3cccc(OC(F)(F)F)c3)n2)[C@H](O)[C@@H]1O [Compound I-349, [(1R,2R,3S,4R)-2,3-dihydroxy-4-{[5-({1-[3-(trifluoromethoxy)benzyl]-1H-pyrazol-3-yl}carbonyl)pyrimidin-4-yl]amino}cyclopentyl]methyl sulfamate]",> 8.00,100
"NS(=O)(=O)OC[C@H]1C[C@@H](Nc2ncncc2C(=O)c2ccn(Cc3cccc(Br)n3)n2)C[C@@H]1O [Compound I-352, [(1R,2S,4R)-4-{[5-({1-[(6-bromopyridin-2-yl)methyl]-1H-pyrazol-3-yl}carbonyl)pyrimidin-4-yl]amino}-2-hydroxycyclopentyl]methyl sulfamate]",> 8.00,99
"CC(C)(O)c1cc(C(=O)c2cncnc2N[C@@H]2C[C@H](COS(N)(=O)=O)[C@@H](O)C2)nn1Cc1cccc(Br)c1 [Compound I-367, {(1R,2S,4R)-4-[(5-{[1-(3-bromobenzyl)-5-(2-hydroxypropan-2-yl)-1H-pyrazol-3-yl]carbonyl}pyrimidin-4-yl)amino]-2-hydroxycyclopentyl}methyl sulfamate]",> 8.00,99
"COCc1cc(C(=O)c2cncnc2N[C@@H]2C[C@H](COS(N)(=O)=O)[C@@H](O)C2)nn1Cc1cccc(Br)c1 [Compound I-368, {(1R,2S,4R)-4-[(5-{[1-(3-bromobenzyl)-5-(methoxymethyl)-1H-pyrazol-3-yl]carbonyl}pyrimidin-4-yl)amino]-2-hydroxycyclopentyl}methyl sulfamate]",> 8.00,98
"N[C@@H]1[C@H](O)[C@@H](COS(N)(=O)=O)C[C@H]1Nc1ncncc1C(=O)c1ccn(Cc2cccc(Br)c2)n1 [Compound I-370, {(1R,2R,3S,4R)-3-amino-4-[(5-{[1-(3-bromobenzyl)-1H-pyrazol-3-yl]carbonyl}pyrimidin-4-yl)amino]-2-hydroxycyclopentyl}methyl sulfamate.2[HCl]]",7.00 to 8.00,78
